From US9745355B2, “Binding-site modified lectins and uses thereof” (SmartCells, Inc., priority 2009, dated 2017)

Test system: formaldehyde-stabilized rabbit erythrocytes
Assay: MAC assay (minimum agglutinating concentration)
Assay type: cell-based
Conditions: 2% v/v suspension of formaldehyde-stabilized rabbit erythrocytes
From the text: Enzymol. 83:368-373, 1982. Formaldehyde-treated rabbit erythrocytes, prepared by published procedures (Nowak et al., Biochim. Biophys. […] The MAC was defined as the lectin protein concentration (exclusive of attached chemical compounds) in the highest dilution showing visible agglutination. […] An aliquot of the formaldehyde-treated Rabbit erythrocytes was then pipetted into each well. At low lectin concentrations, there was insufficient lectin to form a network of crosslinked cells and the cells dropped to the bottom of the V-well forming what looks like a dark pin-point circle at the bottom of the plate when viewed from above. However, once the lectin concentration reached the minimum agglutination concentration (MAC), the lectin molecules began crosslinking the saccharide receptors on the erythrocyte surfaces, resulting in a network that cannot settle to the bottom of the V-well forming what looks like a large, opaque, diffuse circle when viewed from above. The lowest concentration that produces the large diffuse circle is the MAC value for a particular formulation.

With concanavalin A [Umodified] the “MAC” value was under 1 µg/mL.
